Source: ChEMBL document CHEMBL3108691, “Structural investigation of cycloheptathiophene-3-carboxamide derivatives targeting influenza virus polymerase assembly” (J Med Chem, 2013)

System: Influenza A virus
Type: functional, organism-based, Influenza A virus (A/Parma/24/2009(H1N1))
Conditions: MDCK, 48 h

Work on NC(=O)c1ncn([C@@H]2O[C@H](CO)[C@@H](O)[C@H]2O)n1 [RIBAVIRIN] yielded an EC50 of 17 µM.
